Assays:
[1] = system: human IRF-1 promoter; assay: IRF-1 promoter luciferase reporter in A549 cells; type: cell-based
Procedure: Cell transfection. To investigate IRF-1 and -7 gene transcription, A549 cells were transiently transfected with the IRF-1 or -7 promoter, linked to the luciferase reporter gene. Logarithmically growing A549 cells were transfected in triplicate in 60 mm petri dishes by DEAE-Dextran, as previously described (20). Cells were incubated in 2 ml of HEPES buffered DMEM (10 mM Hepes, pH 7.4) containing 20 μl of 60 mg/ml DEAE-Dextran (Amersham Pharmacia Biotec, Arlington Heights, Ill.) premixed with 6 μg of either IRF-1 or -7 plasmids and 1 μg CMV-β galactosidase internal control plasmid. After 3 hours, media was removed and 0.5 ml of 10% (v/v) DMSO in PBS was added to the cells for 2 minutes. Cells were washed with PBS and cultured overnight in 10% FBS/DMEM. The next morning, cells were infected with RSV and cells were lysed at different times post-infectionto measure independently luciferase and galactosidase reporter activity, as previously described (20). Luciferase was normalized to the internal control galactosidase activity. All experiments were performed in duplicate or triplicate.

[2] = system: RANTES mRNA; assay: Northern blot of RANTES mRNA in RSV-infected A549 cells; type: cell-based, human; conditions: 400 μM
Procedure: Cell culture and infection of epithelial cells with RSV. A549, human alveolar type II-like epithelial cells (ATCC, Manassas, Va.), were maintained in F12K medium containing 10% (v/v) fetal bovine serum (FBS), 10 mM glutamine, 100 IU/ml penicillin and 100 μg/ml streptomycin. Small alveolar epithelial cells (SAE) were obtained from Clonetics (San Diego, Calif.) and grown according to the company instructions. Cell monolayers were infected with RSV at multiplicity of infection (MOI) of 1 (unless otherwise stated), as described (17). An equivalent amount of a 20% sucrose solution was added to uninfected A549 cells, as a control. For the antioxidant experiments, cells were pretreated with the antioxidants for one hour and then infected in the presence of the antioxidants. Since BHA was diluted in ethanol, equal amounts of ethanol were added to untreated cells, as a control. Total number of cells, cell viability and viral replication, following antioxidant treatment, were measured by trypan blue exclusion and by plaque assay, respectively. Northern Blot. Total RNA was extracted from control and infected A549 cells by the acid guanidium thiocyanate-phenol chloroform method (18). Twenty micrograms of RNA were fractionated on a 1.2% agarose-formaldehyde gel, transferred to nylon membranes and hybridized to a radiolabeled RANTES, IRF-1, -3 and -7 cDNAs, as previously described (19). […]

[3] = system: RANTES ISRE; assay: EMSA of RANTES ISRE binding complexes, nuclear extracts of RSV-infected A549 cells; type: cell-based, human; conditions: RSV 12 hours, 400 μM
Procedure: Electrophoretic mobility shift assay (EMSA): Nuclear extracts of uninfected and infected A549 cells were prepared using hypotonic/nonionic detergent lysis, as previously described (20). Proteins were normalized by protein assay (Protein Reagent, Bio-Rad, Hercules, Calif.) and used to bind to a duplex oligonucleotide corresponding to the RANTES ISRE, whose sequences is shown below:
DNA-binding reactions contained 10-15 μg nuclear proteins, 5% glycerol, 12 mM HEPES, 80 mM NaCl, 5 mM dithiothreitol (DTT), 5 mM Mg2Cl, 0.5 mM EDTA, 1 μg of poly dI-dC and 40,000 cpm of ^32P-labeled double-stranded oligonucleotide in a total volume of 20 μl. The nuclear proteins were incubated with the probe for 15 minutes at room temperature and then fractionated by 6% nondenaturing polyacrylamide gels (PAGE) in TBE buffer (22 mM Tris-HCl, 22 mM boric acid, 0.25 mM EDTA, pH 8). After electrophoretic separation, gels were dried and exposed for autoradiography using Kodak XAR film at −70° C. using intensifying screens.

[4] = system: RANTES; assay: RSV-induced RANTES secretion in SAE cells (ELISA); type: cell-based, human
Procedure: Cell culture and infection of epithelial cells with RSV. A549, human alveolar type II-like epithelial cells (ATCC, Manassas, Va.), were maintained in F12K medium containing 10% (v/v) fetal bovine serum (FBS), 10 mM glutamine, 100 IU/ml penicillin and 100 μg/ml streptomycin. Small alveolar epithelial cells (SAE) were obtained from Clonetics (San Diego, Calif.) and grown according to the company instructions. Cell monolayers were infected with RSV at multiplicity of infection (MOI) of 1 (unless otherwise stated), as described (17). An equivalent amount of a 20% sucrose solution was added to uninfected A549 cells, as a control. For the antioxidant experiments, cells were pretreated with the antioxidants for one hour and then infected in the presence of the antioxidants. Since BHA was diluted in ethanol, equal amounts of ethanol were added to untreated cells, as a control. Total number of cells, cell viability and viral replication, following antioxidant treatment, were measured by trypan blue exclusion and by plaque assay, respectively. RANTES ELISA. Immunoreactive RANTES was quantitated by a double antibody ELISA kit (DuoSet, R&D Systems, Minneapolis, Minn.) following the manufacturer's protocol.

[5] = system: IRF-3 mRNA; assay: Northern blot of IRF-3 mRNA in RSV-infected A549 cells; type: cell-based, human; conditions: data not shown
Procedure: Northern Blot. Total RNA was extracted from control and infected A549 cells by the acid guanidium thiocyanate-phenol chloroform method (18). Twenty micrograms of RNA were fractionated on a 1.2% agarose-formaldehyde gel, transferred to nylon membranes and hybridized to a radiolabeled RANTES, IRF-1, -3 and -7 cDNAs, as previously described (19). Hybridization temperature for all probes was 55° C. After washing, membranes were exposed for autoradiography using Kodak XAR film at −70° C. using intensifying screens. After exposure, membranes were stripped and rehybridized with a β-actin probe.

[6] = system: NF-κB; assay: RSV-induced NF-κB nuclear translocation and DNA-binding in A549 cells; type: cell-based, human; conditions: data not shown
[7] = system: IRF-1; assay: Western blot of IRF-1 in total cell lysates of RSV-infected A549 cells; type: cell-based, human; conditions: whole cell extracts, RSV 12 hours, 400 μM
Procedure: Western Immunoblot. Total cell lysates and cytoplasmic and nuclear proteins were prepared as previously described, fractionated by SDS-PAGE and transferred to PVDF membrane (20). Membranes were blocked with 5% albumin in TBS-Tween and incubated overnight with a rabbit polyclonal antibody to IRF-1, -3 and -7 (Santa Cruz Biotech, Santa Cruz, Calif.). For secondary detection, a horseradish-coupled anti-rabbit or anti-mouse antibody was used in the enhanced chemiluminescence assay (Amersham Pharmacia Biotec, Arlington Heights, Ill.).

SMILES: COc1ccc(O)c(C(C)(C)C)c1 [BHA, butylated hydroxyanisol]
- basal level of transcription (IRF-1 promoter) ([1]; A549 cells): did not affect
- RSV-induced luciferase activity (IRF-1 promoter) ([1]; RSV 12 hours, 400 μM): completely abolished
- RSV-induced RANTES mRNA induction ([2]; 6 and 12 hours post-infection): completely inhibited
- RSV-induced RANTES mRNA induction ([2]; 24 hours post-infection): greatly reduced
- RSV-induced RANTES ISRE binding [3]: completely abolished
- effectiveness in reducing RSV-induced RANTES secretion, compared among the antioxidants [4]: most effective
- RSV-induced RANTES production ([4]; 400 μM, 24 hours, ELISA): significantly reduced
- IRF-3 mRNA level [5]: unaffected
- RSV-induced NF-κB nuclear translocation and DNA-binding [6]: did not affect
- RSV-induced IRF-1 protein synthesis [7]: almost completely abolished
